Results reported in PMC7275090, “Mode of action of teixobactins in cellular membranes” (Nature Communications, 2020).
Bridge positions count the residues as written; N and C are the ends. Square brackets hold non-standard residues; d marks the D form. Ends that are not written are not given here. d(aIle) = CC[C@H](C)[C@@H](N)C(=O)O; dNMeF = CN[C@H](Cc1ccccc1)C(=O)O

Assays:
[1] = ssNMR 15N T1rho relaxation (dynamics of bound teixobactin), Lys-Lipid I; settings: bound to Lys-Lipid I in DOPC (Lys-LI PC), 950 MHz, 60 kHz MAS
Protocol: Relaxation studies: ^1H-detected ^15N T1rho relaxation experiments were carried out at 950 and 700 MHz magnetic field, respectively, using 60 kHz MAS[51]. The ^15N transverse magnetization decay was probed with a ^15N spinlock field of 17.5 kHz. For the bulk, we measured the intensity of the most intense signal at ~8.80 ^1H ppm. T1rho trajectories were fit to single exponentials.
Lipid I or II-doped multi-laminar vesicle preparations: DOPC or DOPG lipids were mixed with Lipid I or II in 1:1 MeOH:CHCl3 at the final Lipid I or II molar ratio (0–4 mol%/mol). The mixtures were dried and the lipid films were hydrated by vortexing with 2 mL of a teixobactin solution in 40 mM phosphate, 25 mM NaCl, pH 7.0.
(§1) SSNMR samples: MLVs were collected by centrifugation (20,000×g) and loaded into ssNMR rotors. For 3.2 mm rotors, we used 800 nmol of antibiotic with unlabelled Lipid II or I, while we used 400 nmol with labelled Lipid II. For 1.3 mm rotors, samples contained 200 nmol of antibiotic for unlabelled Lipid II or I, while we used 100 nmol for labelled Lipid II. For all ssNMR samples, we used 4 mol%/mol Lipid II or I in the MLVs.

[2] = Fluorescence microscopy of GUVs doped with NBD-labelled Lipid II (Lipid II clustering); settings: 1 μM peptide, 4 h
Protocol: GUVs were prepared using the electroformation method. The GUV cell is a self-assembled system which consists of a 5 mm-thick Teflon plate which is aligned with two titanium electrodes in a closed Teflon chamber. 1.5 μL of 0.5 mM DOPC doped with NBD-labelled Lipid II (0.1 mol%) were brushed on the electrodes. Next, the chamber was filled with 350 μL 0.1 M sucrose solution; the electrodes dipped in and then connected to a power supply which generated a sine wave of voltage 2.5 V at a frequency of 10 Hz for 90 min. Each microscopy slide (μ-slide 8 well, Ibidi) was covered with 350 μL BSA solution (1 mg/mL). To detach the GUVs from the electrodes the power supply was changed to square wave of voltage 2 V at a frequency of 2 Hz for 15 min. The slides were immersed in 300 μL 0.1 mM glucose solution to which 80 μL of GUVs were added. These were incubated for 4 h with 1 μM [R4L10]-teixobactin and observed by confocal microscopy. Anionic GUVs were prepared using a homemade electroformation setup with ITO coverslips (18 × 18 mm, 15–30 Ω, SPI supplies). On both slips, 3 μL of a chloroform–methanol (1:1, vol/vol) solution containing 1 mM of a 3:1 mixture of DOPC:DOPG (mol/mol) and 0.1 mol% NBD-labelled Lipid II was deposited and dried in a vacuum desiccator. With these slips, the electroformation chamber was assembled and filled with 0.1 M sucrose solution. The GUV cell was connected to the power supply and an alternating current applied (1 V, 10 Hz). GUV formation was carried out overnight.
Microscopy: GUVs were imaged using Zeiss LSM 880 with ×63/1.2NA glycerol objective lens. The NBD label appeared green upon excitation by the 488 nm laser. The emission range for detection was 530–545 nm (λem peak = 539 nm). The brightfield images were used for detection and location of the GUVs without a fluorescent signal and also as a control to observe their shape.

[3] = Mobility-edited ssNMR: membrane topology of Lipid II-bound teixobactin; settings: 2D 1H(1H)13C, 700 MHz, 300 K
Protocol: Topological studies: The mobility-edited 2D ^1H(^1H)^13C experiment[22] was performed at 700 MHz with 16.5 kHz MAS at 300 K temperature using a T2 relaxation filter of 2.5 ms. After dephasing of the rigid signals, magnetization from mobile lipid and water molecules was transferred to the rigid antibiotic with 5 ms ^1H–^1H mixing, and subsequently transferred to ^13C nuclei of [R4L10]-teixobactin with a short (200 μs) cross-polarization step.

[4] = Pyrene excimer fluorescence of pyrene-labelled Lipid II in DOPC LUVs (oligomerisation); settings: 0.5 mol% pyrene-Lipid II, pH 8.0, 20 °C
Protocol: The oligomerisation of fluorescent pyrene-labelled Lipid II was observed upon binding of [R4L10]-teixobactin. DOPC LUVs containing 0.5 (mol%) of pyrene-labelled Lipid II in buffer (10 mM Tris–Cl, 100 mM NaCl, pH 8.0) were prepared as described above. All fluorescence experiments were performed with a Cary Eclipse (FL0904M005) fluorometer. All samples (1.0 mL) were continuously stirred in a 10 × 4-mm quartz cuvette and kept at 20 °C. [R4L10]-teixobactin was titrated to the LUVs. Pyrene fluorescence was followed with spectral recordings between 360 and 550 nm (λex 350 nm, bandwidth 5 nm). The emission at 380 and 495 nm was recorded and averaged over 50 s, to obtain the values for the monomer and excimer intensity, respectively, to determine the excimer over monomer ratio for all conditions. […]
398, and 417 nm. Moreover, pyrene can display a characteristic fluorescence peak at longer wavelengths (490 nm), which occurs only when two pyrene rings reside within 10 Å of each other and form an excited state dimer, which known as an excimer.2 Source data are provided as a Source Data file. a) Fluorescence spectra of pyrene-labelled Lipid II symmetrically in large unilamellar vesicles (LUVs) at increasing concentrations of [R4L10]-teixobactin. […]
c) Quantification of the excimer over monomer ratio as a function of the pyrene-labelled Lipid II concentration. […]

[5] = 31P and 2D 1H31P ssNMR of pyrophosphate binding interface; settings: membranes
Source text: Structural studies: To probe intermolecular contacts between ^13C,^15N-labelled [R4L10]-teixobactin molecules bound to unlabelled (^12C,^14N) Lipid II, we ran 2D ^13C^13C PARIS experiments with magnetization transfer times of 50, 300, 600, and 1000 ms at 950 MHz and 15.5 kHz MAS. To probe interfacial contacts between ^13C,^15N-labelled [R4L10]-teixobactin and ^13C,^15N-labelled Lipid II, we ran 2D ^13C^13C PARIS experiments with magnetization transfer times of 25, 50, 600, and 1000 ms at 950 MHz and 18 kHz MAS. 1D ^31P CP experiments were acquired at 500 MHz with 12 kHz MAS. The 2D ^1H^31P experiment was acquired at 800 MHz magnetic field and 60 kHz MAS using 1.75 ms CP transfer from ^1H to ^31P.
as §1

## D-Arg4-Leu10-teixobactin ([dNMeF]IS[dR][d(aIle)]IS[dT]ALI; ester 8-C; also: 13C,15N labels at Ile2, Ser3, Ile6, Ser7 and one Ala (residue not fully stated)) [[R4L10]-teixobactin, teixobactin analogue in which D-Gln4 and L-allo-enduracididine10 are replaced by D-Arg4 and L-Leu10]
[1]
  Bulk 15N R1rho: 21.70 s⁻¹
  Bulk 15N T1rho: 46.09 ms
[2]; DOPC GUVs, 0.1 mol% NBD-Lipid II
  Lipid II segregation into clusters on GUVs: Lipid II segregated into μm-sized clusters
[2]; DOPC GUVs, brightfield images, cluster sites show slight membrane deformations
  vesicle integrity and morphology after incubation: morphology is maintained
[2]; anionic GUVs 1:3 DOPG:DOPC (mol/mol), 0.1 mol% NBD-Lipid II
  Clustering of Lipid II in anionic membranes: clearly visible
[3]
  membrane localization of Lipid II-bound peptide: localizes at the water–membrane interface with the non-polar residues Ile2 and Ile6 partitioned in the bilayer
[4]
  speed of Lipid II oligomerization after addition: virtually immediately
[5]
  coordination of Lipid II pyrophosphate: directly coordinate the pyrophosphate
